Test systems include A498 renal; ACHN renal; HCT-15 colon; K-562 leukemia; KM12 colon; M14 melanoma; NCI-H23 lung; NCI-H460 lung; SW-620 colon; T-47D breast.
What all share (test): DTP human tumour cell line panel, 48 h

TGI data for 14 molecules are collected here from PubChem BioAssay (NCI).

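These data come from cells grown in 96-well plates and exposed to compound for 48 hours at five concentrations. The concentration for full growth arrest is given as TGI.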 Some results are limits rather than exact numbers.

As usually defined, the TGI is the concentration giving total growth inhibition. Consider `Cc1ccc(S(=O)(=O)NC(CCC(=O)NNc2ccccc2)C(=O)NNc2ccccc2)cc1` (stereo not given), for which the TGI in the assay with A498 renal was greater than 100 µM; in the assay with ACHN renal it was greater than 100 µM; in the assay on HCT-15 colon, greater than 100 µM; in the assay on K-562 leukemia, greater than 100 µM; in the assay with KM12 colon it was greater than 100 µM; in the assay with M14 melanoma, 78.8 µM. Besides, the TGI with NCI-H23 lung is greater than 100 µM; with NCI-H460 lung, 51.6 µM; with SW-620 colon it was greater than 100 µM; in the assay on T-47D breast, greater than 100 µM.
Turning to `COc1cccc(N=N/C(=N/NC(=O)c2ccc(C)cc2)c2ccc(N(CCC#N)CCC#N)cc2OC)c1`, the total growth inhibition concentration (TGI) with A498 renal, in the assay with ACHN renal, with HCT-15 colon, in the assay on K-562 leukemia, with KM12 colon and in the assay on M14 melanoma was greater than 100 µM in each case. Moreover, the TGI with NCI-H23 lung, in the assay with NCI-H460 lung, in the assay on SW-620 colon and with T-47D breast was greater than 100 µM in each case.
With `COC(=O)C1=C(OC(=O)/C(=C/c2ccccc2)c2ccc(OC)cc2)C(C(=O)OC)[C@@]2(O)[C@@H](C(=O)OC)[C@H](C)C[C@@H]1[C@@H]2C(=O)OC` (stereo not given in full), the TGI in the assay on A498 renal, with ACHN renal, with HCT-15 colon, in the assay on K-562 leukemia, in the assay with KM12 colon and in the assay with M14 melanoma was greater than 100 µM throughout. Moreover, the TGI in the assay with NCI-H23 lung, with NCI-H460 lung, with SW-620 colon and with T-47D breast was greater than 100 µM throughout.
`N#Cc1c(-c2ccc(Cl)cc2)cc(-c2ccc(Nc3ccnc4cc(Cl)ccc34)cc2)[nH]c1=O`: the TGI with A498 renal was greater than 88.9 µM; in the assay with ACHN renal it was greater than 85.4 µM; in the assay on HCT-15 colon it was greater than 100 µM; in the assay on K-562 leukemia, greater than 100 µM; in the assay on KM12 colon it was greater than 100 µM; with M14 melanoma, greater than 100 µM. The TGI was greater than 75.9 µM in the assay on NCI-H23 lung, greater than 100 µM in the assay on NCI-H460 lung, greater than 100 µM in the assay with SW-620 colon and greater than 100 µM in the assay on T-47D breast.
Consider `CC1CC[C@@]2(OC1)O[C@H]1[C@H](O)[C@H]3[C@@H]4CC[C@H]5C[C@@H](OC6OC(CO)C(OC7OC(CO)C(O)C(OC8OCC(O)C(O)C8O)C7OC7OC(CO)C(O)C(O)C7OC7OC(CO)C(O)C(O)C7O)C(O)C6O)[C@H](O)C[C@]5(C)[C@H]4CC[C@]3(C)[C@H]1[C@@H]2C` (stereo not given in full), for which the TGI in the assay on A498 renal, in the assay with ACHN renal, in the assay with HCT-15 colon, with K-562 leukemia, in the assay with KM12 colon and in the assay with M14 melanoma was greater than 10 µM in each case. For the same molecule, the TGI with NCI-H23 lung, with NCI-H460 lung, in the assay on SW-620 colon and in the assay on T-47D breast was greater than 10 µM throughout.
As for `Cc1c(C(=O)c2ccc(N)c3ccccc23)c2ccccc2n1CCN1CCOCC1`, the TGI is 81.8 µM in the assay on A498 renal; greater than 100 µM in the assay with ACHN renal; greater than 95.7 µM in the assay with HCT-15 colon; greater than 90.6 µM in the assay with K-562 leukemia; 49.1 µM in the assay on KM12 colon; 63.7 µM in the assay on M14 melanoma. Further, the TGI in the assay with NCI-H23 lung is greater than 100 µM; in the assay with NCI-H460 lung, greater than 77.1 µM; in the assay on SW-620 colon, greater than 100 µM; in the assay with T-47D breast it was greater than 100 µM.
With `COc1cc2cc(C(=O)N3CC(COS(C)(=O)=O)c4ccc(NC(=O)OCc5ccccc5)cc43)[nH]c2c(OC)c1OC` (stereo not given), the TGI in the assay with A498 renal, in the assay with ACHN renal, in the assay with HCT-15 colon, in the assay with K-562 leukemia, with KM12 colon and with M14 melanoma was greater than 100 µM throughout. For the same molecule, the TGI with NCI-H23 lung, in the assay with NCI-H460 lung, in the assay on SW-620 colon and with T-47D breast was greater than 100 µM in each case.
Consider `CCOC(=O)/C(C(N)=O)=C(\O)C(=O)/C(Br)=C(\O)c1ccccc1`, for which the TGI is greater than 100 µM with A498 renal; 33.3 µM in the assay on ACHN renal; 39.8 µM in the assay on HCT-15 colon; 31.2 µM with K-562 leukemia; 35.3 µM in the assay on KM12 colon; 29.3 µM with M14 melanoma. The TGI was 37.3 µM with NCI-H23 lung, 56.1 µM in the assay with NCI-H460 lung, 35.2 µM in the assay with SW-620 colon and 54.4 µM with T-47D breast.
As to `C[C@@H]1[C@@H](C)C(c2ccccc2)O[Si]1(C(C)(C)C)C(C)(C)C` (stereo not given in full), the TGI in the assay on A498 renal was 33.9 µM; with ACHN renal, 31.5 µM; with HCT-15 colon, greater than 55.3 µM; in the assay on K-562 leukemia, 63.6 µM; in the assay with KM12 colon, 30.6 µM; in the assay on M14 melanoma it was 42.2 µM. The TGI worked out at 30.3 µM with NCI-H23 lung, 32.2 µM in the assay with NCI-H460 lung, 34.9 µM with SW-620 colon and 37.2 µM in the assay with T-47D breast.
With `N#Cc1nc2cc(Cl)ccc2nc1N1CCN(c2ccc([N+](=O)[O-])cc2)CC1`, the TGI in the assay on A498 renal, with ACHN renal, with HCT-15 colon, with K-562 leukemia, in the assay with KM12 colon and in the assay on M14 melanoma was greater than 100 µM each time. The TGI in the assay with NCI-H23 lung, with NCI-H460 lung, with SW-620 colon and in the assay with T-47D breast was greater than 100 µM in each case.
With `CN(Cc1cnc2nc(N)nc(N)c2n1)c1ccc(C(=O)NC23CC4CC(CC(C4)C2)C3)cc1`, the TGI was greater than 100 µM in the assay with A498 renal; 11.5 µM with ACHN renal; 16.6 µM in the assay with HCT-15 colon; 65.8 µM with K-562 leukemia; 24.8 µM with KM12 colon; 18.4 µM in the assay on M14 melanoma. In addition, the TGI with NCI-H23 lung was 22.3 µM; with NCI-H460 lung, 18.6 µM; with SW-620 colon, greater than 100 µM; with T-47D breast, 39 µM.
In the case of `Cc1cc(-n2nnc(C(=O)O)c2-c2ccccc2)c2ccc(Cl)cc2n1`, the TGI in the assay on A498 renal, in the assay with ACHN renal, in the assay with HCT-15 colon, in the assay on K-562 leukemia, in the assay with KM12 colon and with M14 melanoma was greater than 100 µM throughout. The TGI with NCI-H23 lung, in the assay with NCI-H460 lung, in the assay on SW-620 colon and in the assay on T-47D breast was greater than 100 µM throughout.
As to `Clc1sc(Cl)c2c1[C@@H](Cl)C[C@@H]2Cl`, the TGI in the assay with A498 renal, in the assay on ACHN renal, in the assay on HCT-15 colon, in the assay with K-562 leukemia, in the assay on KM12 colon and with M14 melanoma was greater than 100 µM each time. Also, the TGI in the assay on NCI-H23 lung, in the assay with NCI-H460 lung, in the assay on SW-620 colon and with T-47D breast was greater than 100 µM in each case.
In the case of `CC(C)(C)OC(=O)[C@@H]1CCC(=O)N1C1(c2ccccc2)c2ccccc2-c2ccccc21`, the TGI in the assay with A498 renal, with ACHN renal, in the assay with HCT-15 colon, with K-562 leukemia, in the assay on KM12 colon and in the assay on M14 melanoma was greater than 100 µM each time. Besides, the TGI with NCI-H23 lung is greater than 100 µM; in the assay on NCI-H460 lung it was greater than 100 µM; in the assay on SW-620 colon, 87.1 µM; with T-47D breast it was greater than 100 µM.
